Measured values as given in publication PMC8841437 (Clinical and Translational Science, 2021).

Tests used:
Type in all cases: in vivo, human
Single ascending dose = conditions: for increase in bioavailability by food intake: fed vs fasted; for AUC: AUC(0‐T); for AUC / Cmax: n = 6, geometric mean (geometric CV%); for Cmax: fed (high-fat breakfast)
[1] = Urinary excretion of milvexian
healthy participants = assay: Safety and tolerability; conditions: for Abdominal discomfort (TEAE) / Abdominal pain (TEAE) / Any TEAE / Diarrhea (TEAE) / Dizziness (TEAE) / Headache (TEAE) / Nausea (TEAE) / Oropharyngeal pain (TEAE) / Pain in extremity (TEAE): n = 6
[2] = MAD panel 10, 200 mg q.d. fasted

C[C@@H]1CCC[C@H](n2cnc(-c3cc(Cl)ccc3-n3cc(Cl)nn3)cc2=O)c2cc(ccn2)-c2c(cnn2C(F)F)NC1=O [milvexian]
increase in bioavailability by food intake (Single ascending dose; SAD 200-mg panel): ~ 1.4 fold
increase in bioavailability by food intake (Single ascending dose; SAD 500-mg panel): ~ 2 fold
mean T1/2 shortened when administered with food (Single ascending dose; SAD panels 4 and 6, fed vs fasted): 1.5 h
dose proportionality of Cmax and exposure (Single ascending dose; SAD, fasted, 20 to 200 mg): generally dose‐proportional
AUC (Single ascending dose; human, plasma, oral, 4 mg, SAD panel 1, 4 mg, fasted): 125 ng·h/mL
AUC (Single ascending dose; human, plasma, oral, 20 mg, SAD panel 2, 20 mg, fasted): 1220 ng·h/mL
AUC (Single ascending dose; human, plasma, oral, 60 mg, SAD panel 3, 60 mg, fasted): 3790 ng·h/mL
AUC (Single ascending dose; human, plasma, oral, 200 mg, SAD panel 4, 200 mg, fasted): 12500 ng·h/mL
AUC (Single ascending dose; human, plasma, oral, 200 mg, SAD panel 4, 200 mg, fed): 17800 ng·h/mL
Cmax (Single ascending dose; human, plasma, oral, 200 mg, SAD panel 4, 200 mg): 1640 ng/mL
AUC (Single ascending dose; human, plasma, oral, 300 mg, SAD panel 5, 300 mg, fasted): 14600 ng·h/mL
AUC (Single ascending dose; human, plasma, oral, 500 mg, SAD panel 6, 500 mg, fasted): 21000 ng·h/mL
AUC (Single ascending dose; human, plasma, oral, 500 mg, SAD panel 6, 500 mg, fed): 44300 ng·h/mL
Cmax (Single ascending dose; human, plasma, oral, 500 mg, SAD panel 6, 500 mg): 3360 ng/mL
half-life (Single ascending dose; human, plasma, oral, T1/2, range across all SAD panels, SAD, 4-500 mg): 8.3 to 13.8 h
Tmax (Single ascending dose; human, plasma, oral, Tmax, summary in discussion, rapid absorption): 2 to 4 h
mean total amount excreted in urine from 0 to 24 h postdose ([1]; MAD panel 9, 70 mg q.d., day 1): 14.8 % of the administered dose
mean total amount excreted in urine from 0 to 24 h postdose ([1]; MAD panel 9, 70 mg q.d., day 14): 17.3 % of the administered dose
mean total amount excreted in urine from 0 to 24 h postdose ([1]; MAD panel 10, 200 mg q.d., day 1): 10.4 % of the administered dose
mean total amount excreted in urine from 0 to 24 h postdose ([1]; MAD panel 10, 200 mg q.d., day 14): 14.1 % of the administered dose
Renal excretion ([1]; all panels): less than 20%
epistaxis (healthy participants; MAD 5-mg q.d. group): one participant
gingival bleeding (healthy participants; MAD 5-mg q.d. group, considered treatment-related, mild): one participant
petechia (healthy participants; MAD 70-mg q.d. group, considered treatment-related, mild): one participant
Abdominal discomfort (TEAE) (healthy participants; MAD panel 7, 5 mg q.d. fasted): 1 (16.7) n (%)
Abdominal pain (TEAE) (healthy participants; MAD panel 7, 5 mg q.d. fasted): 0 n (%)
Any TEAE (healthy participants; MAD panel 7, 5 mg q.d. fasted): 4 (66.7) n (%)
Diarrhea (TEAE) (healthy participants; MAD panel 7, 5 mg q.d. fasted): 1 (16.7) n (%)
Dizziness (TEAE) (healthy participants; MAD panel 7, 5 mg q.d. fasted): 0 n (%)
Headache (TEAE) (healthy participants; MAD panel 7, 5 mg q.d. fasted): 2 (33.3) n (%)
Nausea (TEAE) (healthy participants; MAD panel 7, 5 mg q.d. fasted): 0 n (%)
Oropharyngeal pain (TEAE) (healthy participants; MAD panel 7, 5 mg q.d. fasted): 0 n (%)
Pain in extremity (TEAE) (healthy participants; MAD panel 7, 5 mg q.d. fasted): 0 n (%)
discontinuation of treatment because of an AE (macular rash) (healthy participants; MAD panel 7, after one dose of 5 mg): one participant
Abdominal discomfort (TEAE) (healthy participants; MAD panel 8, 20 mg q.d. fasted): 0 n (%)
Abdominal pain (TEAE) (healthy participants; MAD panel 8, 20 mg q.d. fasted): 0 n (%)
Any TEAE (healthy participants; MAD panel 8, 20 mg q.d. fasted): 1 (16.7) n (%)
Diarrhea (TEAE) (healthy participants; MAD panel 8, 20 mg q.d. fasted): 0 n (%)
Dizziness (TEAE) (healthy participants; MAD panel 8, 20 mg q.d. fasted): 0 n (%)
Headache (TEAE) (healthy participants; MAD panel 8, 20 mg q.d. fasted): 1 (16.7) n (%)
Nausea (TEAE) (healthy participants; MAD panel 8, 20 mg q.d. fasted): 0 n (%)
Oropharyngeal pain (TEAE) (healthy participants; MAD panel 8, 20 mg q.d. fasted): 0 n (%)
Pain in extremity (TEAE) (healthy participants; MAD panel 8, 20 mg q.d. fasted): 0 n (%)
Abdominal discomfort (TEAE) (healthy participants; MAD panel 9, 70 mg q.d. fasted): 1 (16.7) n (%)
Abdominal pain (TEAE) (healthy participants; MAD panel 9, 70 mg q.d. fasted): 1 (16.7) n (%)
Any TEAE (healthy participants; MAD panel 9, 70 mg q.d. fasted): 5 (83.3) n (%)
Diarrhea (TEAE) (healthy participants; MAD panel 9, 70 mg q.d. fasted): 3 (50.0) n (%)
Dizziness (TEAE) (healthy participants; MAD panel 9, 70 mg q.d. fasted): 1 (16.7) n (%)
Headache (TEAE) (healthy participants; MAD panel 9, 70 mg q.d. fasted): 2 (33.3) n (%)
Nausea (TEAE) (healthy participants; MAD panel 9, 70 mg q.d. fasted): 1 (16.7) n (%)
Oropharyngeal pain (TEAE) (healthy participants; MAD panel 9, 70 mg q.d. fasted): 0 n (%)
Pain in extremity (TEAE) (healthy participants; MAD panel 9, 70 mg q.d. fasted): 1 (16.7) n (%)
Abdominal discomfort (TEAE) (healthy participants; [2]): 0 n (%)
Abdominal pain (TEAE) (healthy participants; [2]): 1 (16.7) n (%)
Any TEAE (healthy participants; [2]): 4 (66.7) n (%)
Diarrhea (TEAE) (healthy participants; [2]): 1 (16.7) n (%)
Dizziness (TEAE) (healthy participants; [2]): 0 n (%)
Headache (TEAE) (healthy participants; [2]): 1 (16.7) n (%)
Nausea (TEAE) (healthy participants; [2]): 2 (33.3) n (%)
Oropharyngeal pain (TEAE) (healthy participants; [2]): 1 (16.7) n (%)
Pain in extremity (TEAE) (healthy participants; [2]): 1 (16.7) n (%)
Abdominal discomfort (TEAE) (healthy participants; MAD panel 11, 500 mg q.d. fed): 0 n (%)
Abdominal pain (TEAE) (healthy participants; MAD panel 11, 500 mg q.d. fed): 0 n (%)
Any TEAE (healthy participants; MAD panel 11, 500 mg q.d. fed): 3 (50.0) n (%)
Diarrhea (TEAE) (healthy participants; MAD panel 11, 500 mg q.d. fed): 0 n (%)
Dizziness (TEAE) (healthy participants; MAD panel 11, 500 mg q.d. fed): 0 n (%)
Headache (TEAE) (healthy participants; MAD panel 11, 500 mg q.d. fed): 0 n (%)
Nausea (TEAE) (healthy participants; MAD panel 11, 500 mg q.d. fed): 0 n (%)
Oropharyngeal pain (TEAE) (healthy participants; MAD panel 11, 500 mg q.d. fed): 0 n (%)
Pain in extremity (TEAE) (healthy participants; MAD panel 11, 500 mg q.d. fed): 0 n (%)
